Experimental data published in PMC6105524 (Lipids, 2018).
Read-outs that look alike come from different tables or passages of the source.

How the values were obtained:
[1] = Plasma unlabeled fatty acid concentrations; type: in vivo, human
[2] = type: in vivo, human; settings: for Time first detected in plasma: after beginning infusion; for Total esterified amount in plasma at 7 h: 7 h of infusion
[3] = subject S01, unlabeled, mean of 17 time points, low linoleate diet
[4] = subject S02, unlabeled, mean of 17 time points, low linoleate diet

## CCCCCCCC/C=C\CCCCCCCC(=O)O [18:1n-9]
[1]; in vivo
  Fatty acid concentration in plasma total lipids (mean): 896 nmol/mL

## CCCCCCCC/C=C\CCCCCCCCCC(=O)O [20:1n-9]
[1]; [3]
  Fatty acid concentration in plasma total lipids (mean): 7.8 nmol/mL
[1]; [4]
  Fatty acid concentration in plasma total lipids (mean): 9.3 nmol/mL

## CCCCC/C=C\C/C=C\C/C=C\C/C=C\CCCCCC(=O)O [22:4n-6]
[1]; [3]
  Fatty acid concentration in plasma total lipids (mean): 9.6 nmol/mL
[1]; [4]
  Fatty acid concentration in plasma total lipids (mean): 8.5 nmol/mL

## CCCCCC/C=C/CCCCCCCCCC(=O)O [18:1n-7]
[1]; [3]
  Fatty acid concentration in plasma total lipids (mean): 98.0 nmol/mL
[1]; [4]
  Fatty acid concentration in plasma total lipids (mean): 104 nmol/mL

## CC/C=C\C/C=C\C/C=C\CCCCCCCC(=O)O [ALA, α-linolenic acid]
[1]; subject S01
  Plasma concentration of unesterified unlabeled ALA: 2.52 µM
[1]; [3]
  Fatty acid concentration in plasma total lipids (mean): 24.3 nmol/mL
[1]; subject S02
  Plasma concentration of unesterified unlabeled ALA: 4.74 µM
[1]; [4]
  Fatty acid concentration in plasma total lipids (mean): 33.5 nmol/mL

## CCCCC/C=C\C/C=C\C/C=C\CCCCCCC(=O)O [20:3n-6]
[1]; [3]
  Fatty acid concentration in plasma total lipids (mean): 98.2 nmol/mL
[1]; [4]
  Fatty acid concentration in plasma total lipids (mean): 79.1 nmol/mL

## [2H]C([2H])([2H])C([2H])([2H])/C=C\C/C=C\C/C=C\C/C=C\C/C=C\CCCCCC(=O)O [d5-22:5n-3]
[2]
  Time first detected in plasma: 40 min
[2]; both subjects
  Time for which plasma amount increased before leveling off: up to 4 h
  Time to achieve steady-state plasma concentration of esterified d5-HUFA: about 5 hr
[2]; subject S01
  Smax (maximal first derivative of plasma total amount time-course of newly synthesized d5-n-3 HUFA): 2.43 nmol/min
  Total esterified amount in plasma at 7 h: 580 nmol
[2]; subject S01, 8 h iv infusion of d5-ALA-albumin 0.78 mg/kg BW/hr
  Time at Smax: 94 min
[2]; subject S02
  Smax (maximal first derivative of plasma total amount time-course of newly synthesized d5-n-3 HUFA): 4.14 nmol/min
  Total esterified amount in plasma at 7 h: 920 nmol
[2]; subject S02, 8 h iv infusion of d5-ALA-albumin 0.78 mg/kg BW/hr
  Time at Smax: 156 min

## CCCCC/C=C\C/C=C\C/C=C\C/C=C\C/C=C\CCC(=O)O [22:5n-6]
[1]; [3]
  Fatty acid concentration in plasma total lipids (mean): 16.8 nmol/mL
[1]; [4]
  Fatty acid concentration in plasma total lipids (mean): 8.0 nmol/mL

## CCCCCCCCCCCCCCCC(=O)O [16:0]
[1]; [3]
  Fatty acid concentration in plasma total lipids (mean): 1265 nmol/mL
[1]; [4]
  Fatty acid concentration in plasma total lipids (mean): 1152 nmol/mL

## CCCCCCCCCCCCCCCCCCCCCCCC(=O)O [24:0]
[1]; [3]
  Fatty acid concentration in plasma total lipids (mean): 21.5 nmol/mL
[1]; [4]
  Fatty acid concentration in plasma total lipids (mean): 15.2 nmol/mL

## CCCCCCCCCCCCCCCCCCCCCC(=O)O [22:0]
[1]; [3]
  Fatty acid concentration in plasma total lipids (mean): 30.5 nmol/mL
[1]; [4]
  Fatty acid concentration in plasma total lipids (mean): 17.4 nmol/mL

## [2H]C([2H])([2H])C([2H])([2H])/C=C\C/C=C\C/C=C\C/C=C\C/C=C\CCCC(=O)O [d5-20:5n-3]
[2]; both subjects
  Time at Smax: about 200 min
  Time to achieve steady-state plasma concentration of esterified d5-HUFA: about 5 hr
[2]; subject S01
  Smax (maximal first derivative of plasma total amount time-course of newly synthesized d5-n-3 HUFA): 3.23 nmol/min
[2]; subject S02
  Smax (maximal first derivative of plasma total amount time-course of newly synthesized d5-n-3 HUFA): 2.29 nmol/min

## [2H]C([2H])([2H])C([2H])([2H])/C=C\C/C=C\C/C=C\C/C=C\C/C=C\C/C=C\CCC(=O)O [d5-22:6n-3]
[2]
  Time first detected in plasma: 40 min
[2]; both subjects
  Time for which plasma amount increased before leveling off: up to 4 h
  Time to achieve steady-state plasma concentration of esterified d5-HUFA: about 5 hr
[2]; subject S01
  Smax (maximal first derivative of plasma total amount time-course of newly synthesized d5-n-3 HUFA): 0.67 nmol/min
  Total esterified amount in plasma at 7 h: 148 nmol
[2]; subject S02
  Smax (maximal first derivative of plasma total amount time-course of newly synthesized d5-n-3 HUFA): 0.21 nmol/min
  Total esterified amount in plasma at 7 h: 44 nmol

## [2H]C([2H])([2H])C([2H])([2H])/C=C\C/C=C\C/C=C\CCCCCCCC(=O)O [d5-18:3n-3, d5–17, 17, 18, 18, 18-18:3n-3, reference compound]
[2]; in vivo
  Plasma concentration of unesterified d5-18:3n-3 at 6 h: 4.37 µM
  Time to reach steady-state plasma concentration of infused unesterified tracer: about 10 min
